The source of these data is article PMC6627486, “Ipomoeassin F Binds Sec61α to Inhibit Protein Translocation” (Journal of the American Chemical Society, 2019).

The structures appear in SMILES notation. Like-named read-outs stand apart in the source and are kept apart here.

Series [1] in a line: AlamarBlue cytotoxicity assay, MCF-10A. It counts as cell-based, human. To be noted: human. Here is the method:
(§1) AlamarBlue Cytotoxicity Assay
MDA-MB-231, MCF-10A and HCT116. Viable cells were counted with a hemocytometer immediately before each experiment . Experiments were done in triplicate. First, 100 μL of MDA-MB-231 cells or MCF-10A cells at the density of 50,000 cells/mL was seeded in a 96-well plate (5,000 cells/well) and then incubated at 37 °C and 5% CO2 for 24 h. The compounds were dissolved in DMSO (dimethyl sulfoxide) to make drug stocks (10 mM). The stock solutions were diluted with the complete DMEM high glucose culture medium to make a series of gradient fresh working solutions right before each test. Subsequently, the cells were treated with 100 μL of the freshly made gradient working solution in a total volume of 200 μL/well for 72 h. After that, the media were discarded and 200 μL of the fresh complete medium containing 10% of AlamarBlue (resazurin) stock solution was added to each well. The plate was then incubated at 37 °C and 5% CO2 for another 3 h. Emission of each well at 620 nm was detected by a microplate reader (BioTek Synergy H1) at excitation 580 nm. […]
Microplate Reader. The percentage of viability compared to the negative control (DMSO-treated cells) […]
(§2) was determined. […]
A general note: The colour change of resazurin is a common sign of viable cells or microbes.

Series [2] relates to TNF production by RAW264.7 cells. Put plainly: TNF production washout assay in LPS-stimulated RAW264.7 cells. To be noted: 250 nM ipomoeassin F, 125 ng/mL mycolactone; for TNF production after 24 h washout: 1 h incubation, washed, 24 h recovery, then LPS 4 h; for TNF production, direct assay: 1 h preincubation, then 100 ng/mL LPS 4 h. It counts as cell-based. The protocol:
The reversibility of the inhibition of secreted protein production by ipomoeassin F was determined by following the production of TNF in RAW264.7 cells as described before.22 Briefly, RAW264.7 cells were maintained at 37 °C and 5% CO2 in high glucose DMEM (Merck), supplemented with 10% heat-inactivated FBS (GIBCO). Cells were plated into 24 well plates at a concentration of 1 x 10^5/ml 24 hour prior to assay, then incubated for 1 hour in the presence or absence of 125 ng/ml mycolactone, 250 nM Ipomoeassin F or DMSO carrier. Cells were either stimulated directly with 100 ng/ml TLR-grade LPS (Enzo) or washed 3 times with medium and incubated 24 hour, then stimulated with LPS. In each case, cells were incubated with LPS for 4 hour then the supernatants were removed. The concentration of TNF in supernatants was quantified by ELISA (eBioscience).

Series [3] relates to CD62L expression in Jurkat T cells. The series is described as follows: CD62L expression by Jurkat T cells. It counts as cell-based, human. To be noted: 24 h treatment. The protocol:
Jurkat E6.1 (ATCC TIB-152TM) T cells were cultured in RPMI GlutamaxTM (Life Technologies), supplemented with 10% heat-inactivated fetal calf serum (FCS) (Invitrogen) and penicillin/streptomycin (100 U/ml, 100 µg/ml). Cells were treated with Ipomoeassin F or mycolactone for 24 h, then pelleted and stained with FITC-conjugated anti-human CD62L (clone DREG-56 (BioLegend #304804) at 500 ng/ml) during 40 min at 4°C. Fluorescence signals were acquired on an Accuri CD (BD) and analyzed with the […]
FlowJo X software. […]

A further series has as its system WT HCT116. Put plainly: Alamar Blue viability, parental HCT116 (96 h). It counts as cell-based, human. The note with it: read-out: cell viability IC50. The protocol: as §1
MDA-MB-231, MCF-10A and HCT116. Viable cells were counted with a hemocytometer immediately before each experiment . Experiments were done in triplicate. First, 100 μL of MDA-MB-231 cells or MCF-10A cells at the density of 50,000 cells/mL was seeded in a 96-well plate (5,000 cells/well) and then incubated at 37 °C and 5% CO2 for 24 h. The compounds were dissolved in DMSO (dimethyl sulfoxide) to make drug stocks (10 mM). The stock solutions were diluted with the complete DMEM high glucose culture medium to make a series of gradient fresh working solutions right before each test. Subsequently, the cells were treated with 100 μL of the freshly made gradient working solution in a total volume of 200 μL/well for 72 h. After that, the media were discarded and 200 μL of the fresh complete medium containing 10% of AlamarBlue (resazurin) stock solution was added to each well. The plate was then incubated at 37 °C and 5% CO2 for another 3 h. Emission of each well at 620 nm was detected by a microplate reader (BioTek Synergy H1) at excitation 580 nm. For HCT116 WT and mutant lines, cells were seeded at 1000 cells/ well in complete McCoys medium. […] Cells were treated for 96 h, then viability measured with AlamarBlue, detected using the conditions described but with a BMG Fluostar Optima Microplate Reader. […]
as §2

In the case of `C/C=C(\C)C(=O)O[C@H]1[C@H](OC(=O)/C=C/c2ccc(OCc3cn(CCOCCOCCOCCNC(=O)CCCC[C@@H]4SC[C@@H]5NC(=O)N[C@@H]54)nn3)cc2)[C@@H](O)[C@@H]2O[C@H]3[C@H](O[C@@H](CCCCC)CCCCCCC(=O)CCC(=O)OC[C@H]1O2)O[C@H](C)[C@H](OC(C)=O)[C@@H]3O` [compound 5], in series [1] (72 h), the IC50 is 21.7 nM.

As to `C/C=C(\C)C(=O)O[C@@H]1[C@@H](O)[C@@H]2O[C@H]3[C@H](O[C@@H](CCCCC)CCCCCCC(=O)CCC(=O)OC[C@@H](O2)[C@H]1OC(=O)/C=C/c1ccccc1)O[C@H](C)[C@H](OC(C)=O)[C@@H]3O` [ipomoeassin F], in series [2], the “TNF production after 24 h washout” value is “restored, albeit at a reduced level”. Moreover, the “TNF production, direct assay” value in series [2] is reported as “similarly blocked TNF production”. Further, the IC50 in series [3] (Homo sapiens) came to 6.3 nM; with WT HCT116 (Homo sapiens, HCT-116, WT HCT116, 96 h) it was 40 ± 4 nM. In addition, in series [1], the IC50 at 72 h came to 5.3 nM.

As to `CC(=C\C=C\C(C)=C\[C@H](O)[C@@H](O)C[C@H](C)O)/C=C(C)/C=C/C(=O)O[C@H]1CCCC(=O)O[C@@H]([C@@H](C)C/C(C)=C/[C@@H](C)[C@H](O)C[C@@H](C)O)C/C=C(\C)C[C@@H]1C` [mycolactone, reference compound], the “TNF production after 24 h washout” value in series [2] is “not to be restored”. Besides, the “TNF production, direct assay” value in series [2] is given as “completely block TNF production”. Also, the IC50 turned out to be 6.3 nM in series [3] and 1.9 ± 0.6 nM in the series with WT HCT116 (WT HCT116, 96 h).

The IC50 is the concentration that gives 50% inhibition.
